Results reported in patent publication US10590393B2, “Retinoic acid enhanced human stem cell derived blood brain barrier model” (Wisconsin Alumni Research Foundation, priority 2012, dated 2020).

Legend:
[1] = tested on: differentiating IMR90-4 hiPSCs; experiment: Adherens junction and tight junction protein expression (immunocytochemistry, flow cytometry, western blot); format: cell-based, human
Description: Cells were washed twice with phosphate-buffered saline (PBS; Sigma) and fixed with either 100% ice-cold methanol for 10 min or 4% paraformaldehyde for 15 min. Cells were then washed twice with PBS and blocked in PBS containing 40% goat serum (40% PBSG; Sigma) at 20° C. for 30 min. In some instances, 0.1% Triton X-100 (TX-100) was included during this step to permeabilize the cells. Cells were then washed once with PBS and incubated with primary antibodies against occludin (1:100; Invitrogen), claudin-5 (1:100; Invitrogen), VE-cadherin (1:25; Santa Cruz Biotechnology), von Willebrand Factor (vWF; 1:100; Dako), p-glycoprotein (clone F4; 1:25; Lab Vision), breast cancer resistance protein (BCRP, clone 5D3; 1:25; Millipore), multidrug resistance protein 1 (MRP1, clone QCRL-1; 1:100; Millipore), in 40% PBSG at 4° C. overnight. Cells were washed three times with PBS and incubated with secondary antibodies (goat anti-rabbit Texas Red and goat anti-mouse Alexa Fluor 488; 1:500; Invitrogen) for 1 h at 20° C. […] For quantitative analysis of BMEC integrity, the percentage of cells expressing frayed tight junctions was counted using BMECs immunolabeled for occludin. […] A minimum of four separate frames and 1000 total cells were counted to obtain a percentage of frayed tight junctions.
Cells were washed once with PBS and dissociated with ACCUTASE for 5 min, then spun down and fixed in 2% paraformaldehyde for 15 min or 100% methanol for 10 min at 20° C. […] After another two washes with PBS containing 5% FBS, cells were analyzed on a FACSCALIBER flow cytometer and the IgG control was used to quantify positive labeling. Elevated GLUT-1 expression was quantified using a GLUT-1/forward scatter plot referenced to baseline GLUT-1 expression measured at day 4 of UM culture.
Cells were washed once with PBS and lysed with RIPA buffer (Pierce, Rockford, Ill., USA). Protein concentration was quantified via BCA assay (Pierce) and proteins were then resolved by SDS-PAGE on 4-20% Tris-Glycine gradient gels (Invitrogen). […] Protein levels were detected via a SUPERSIGNAL West Pico Chemiluminescent Substrate (Pierce).

[2] = tested on: efflux transporter genes in IMR90-4-derived BMECs; experiment: qPCR of efflux transporter gene expression; format: cell-based, human; conditions: compared to untreated samples
Description: Cells were washed once with PBS and dissociated with ACCUTASE (Invitrogen). Total RNA was extracted using an RNEASY Mini Kit (Qiagen) according to the manufacturer's instructions and quantified using a NanoDrop® ND-1000. cDNA was generated from 1 μg of total RNA using Omniscript reverse transcriptase (Qiagen) and an oligo-dT primer (Invitrogen). qPCR was conducted using 1 μL of cDNA and iQ SYBR Green Mastermix (Bio-Rad) on an iCycler (Bio-Rad). Relative expression was quantified between samples using the comparative cycle threshold (Ct) method with glyceraldehyde-3-phosphate dehydrogenase (GAPDH) as the housekeeping gene. […] Primer sequences were as previously reported.

CC1=C(/C=C/C(C)=C/C=C/C(C)=C/C(=O)O)C(C)(C)CCC1 [RA, retinoic acid]
decrease of the level of claudin-5 expression ([1]; RA during 2 days of EC medium treatment): 1.7 fold | increase of the level of occludin expression ([1]; RA during 2 days of EC medium treatment, across biological replicates): 1.8 to 2.9 fold | positive expression for VE-cadherin, claudin-5, and occludin ([1]; purified RA-treated BMECs): 95-98% | ABCB1 (p-glycoprotein) upregulation, ΔΔCt [2]: 1.6±0.4 | ABCC1 (MRP1) upregulation, ΔΔCt [2]: 1.97±0.71 | ABCC2 (MRP2) upregulation, ΔΔCt [2]: 1.3±0.31 | ABCC5 (MRP5) upregulation, ΔΔCt [2]: 0.9±0.29 | ABCG2 (BCRP) upregulation, ΔΔCt [2]: 1.8±0.15
